Reference: publication PMC8247284 (Antiviral Research, 2021)

Columns and labels:
[1] = system: LC3-positive puncta (autophagy); assay: Confocal microscopy of LC3 in Huh7 cells; format: cell-based, human; conditions: chloroquine 0.5, 5 and 50 μM, 6 h, infected and uninfected Huh7 cells
HCoV-229E = assay: Confocal microscopy of dsRNA, HCoV-229E-infected Huh7 cells; format: cell-based; conditions: dsRNA staining, 6 h
SARS-CoV-2 [2] = assay: Confocal microscopy of dsRNA, SARS-CoV-2-infected Huh7 cells; format: cell-based; conditions: chloroquine 5 μM, 6 h
[3] = system: alpha- and beta-coronaviruses; assay: organism not typed; conditions: read-out: EC50 values against the various coronaviruses
[4] = system: LC3 puncta (autophagy pathway); assay: High content analysis of cytoplasmic LC3 puncta in HEp-2 cells; format: cell-based, human; conditions: 3 h incubation, relative to untreated control
SARS-CoV-2 [5] = format: cell-based

Row | SMILES | EC50 [3] | further results
1 | CCN(CC)CCCC(C)Nc1ccnc2cc(Cl)ccc12 (stereo not drawn) [Chloroquine, chloroquine] | 0.12 to 12 µM | LC3-positive puncta [1]: dose-dependent increase; concentration required to fully inhibit HCoV-229E replication (HCoV-229E): 50 µM; viral RNA synthesis (dsRNA staining) (SARS-CoV-2 [2]): completely blocked; increase of the intensity of cytoplasmic LC3 puncta [4]: 6 fold
2 | N#C[C@@]1(c2ccc3c(N)ncnn23)O[C@H](CO)[C@@H](O)[C@H]1O [GS-441524] |  | log reduction of the viral copy number (SARS-CoV-2 [5]): 4.3 log
3 | CCN(CCO)CCCC(C)Nc1ccnc2cc(Cl)ccc12 (stereo not drawn) [Hydroxychloroquine, hydroxychloroquine] | 0.12 to 12 µM | increase of the intensity of cytoplasmic LC3 puncta [4]: 6 fold
4 | COc1cc(NC(C)CCCN)c2ncccc2c1 (stereo not drawn) [Primaquine, primaquine] | > 13 µM | 
5 | C=C[C@H]1C[N@@]2CC[C@H]1C[C@@H]2[C@@H](O)c1ccnc2ccc(OC)cc12 [Quinidine, quinidine] | > 13 µM | 
6 | C=C[C@H]1C[N@@]2CC[C@H]1C[C@H]2[C@H](O)c1ccnc2ccc(OC)cc12 [Quinine, quinine] | > 13 µM | 
7 | COc1cc(C)c2c(Oc3cccc(C(F)(F)F)c3)c(OC)cc(NC(C)CCCN)c2n1 (stereo not drawn) [Tafenoquine, tafenoquine] | > 13 µM | 
